Source: patent publication US12631620B2, “Methods of generating organoids for high throughput screening of drugs” (Yissum Research Development Company of the Hebrew …, priority 2019, dated 2026)
“And” between values parts separate entries of the source, which are not always exact repeats. Identical values can stand only once.

Assays:
[1] = tested on: E6/E7^LOW human hepatocytes; experiment: Steatosis and phospholipidosis, HCS LipidTOX detection kit, hepatocyte cultures; format: cell-based
Method: Quantification of Apoptotic index was performed using DeadEnd™ fluorometric TUNEL System (Promega) according to manufacturer directions. Briefly, cells were treated with TC20 concentrations of compounds dissolved in culture medium for 24 hours, and subsequently fixed in 4% Paraformaldehyde (PFA). Cells were then permeabilized and exposed to fluorescein-12-dUTP and terminal deoxynucleotidyl transferase (TdT). The reaction was subsequently stopped and the cells counterstained with 1 μg/mL Hoechst 33258. Apoptotic cells were positive for green fluorescence in the nucleus. Percentage apoptosis was defined as the number of TUNEL positive nuclei normalized to Hoechst 33258 positive nuclei. Quantification of Steatosis was performed using HCS LipidTOX™ Phospholipidosis and Steatosis Detection Kit (ThermoFisher). Briefly, differentiated cells were incubated with different concentrations of compounds dissolved in culture medium and 1× Phospholipidosis Detection Reagent for 48 hours, subsequently fixed in 4% PFA. Cells were then stained with 1× LipidTOX™ for 20 minutes and counterstained with 1 μg/mL Hoechst 33258. Staining intensity was normalized to number of Hoechst 33258 positive nuclei. Quantification of Bile Secretion was performed using 5(6)-carboxy-2′,7′-dichlorofluorescein diacetate (CDFDA) staining. Briefly, differentiated cells were incubated with different concentrations of compounds dissolved in culture medium for 24 hours. Cells were then treated with 10 μg/mL CDFDA and 1 μg/mL Hoechst 33342 for 30 minutes. Incubation medium was removed and cultures washed with ice-cold PBS containing calcium and magnesium. Staining intensity was normalized to number of Hoechst 33342 positive nuclei. Analysis excluded Intracellular CDFDA staining based on intensity and phase images. All quantifications were made in comparison to cells treated with melatonin as negative control.
Quantification of Apoptotic index was performed using DeadEnd™ fluorometric TUNEL System (Promega) according to manufacturer directions. Briefly, cells were treated with TC20 concentrations of compounds dissolved in culture medium for 24 hours, and subsequently fixed in 4% Paraformaldehyde (PFA). Cell were then permeabilized and exposed to fluorescein-12-dUTP and terminal deoxynucleotidyl transferase (TdT). The reaction was subsequently stopped and the cells counterstained with 1 μg/mL Hoechst 33258. Apoptotic cells were positive for green fluorescence in the nucleus. […] Quantification of Steatosis was performed using HCS LipidTOX™ Phospholipidosis and Steatosis Detection Kit (ThermoFisher). […] Quantification of Bile Secretion was performed using 5(6)-carboxy-2′,7′-dichlorofluorescein diacetate (CDFDA) staining. […] All quantifications were made in comparison to cells treated with melatonin as negative control.

[2] = tested on: E6/E7^LOW human hepatocytes; experiment: Bile secretion, CDFDA staining; format: cell-based; settings: p<0.05, n=4
Method: Quantification of Apoptotic index was performed using DeadEnd™ fluorometric TUNEL System (Promega) according to manufacturer directions. Briefly, cells were treated with TC20 concentrations of compounds dissolved in culture medium for 24 hours, and subsequently fixed in 4% Paraformaldehyde (PFA). Cells were then permeabilized and exposed to fluorescein-12-dUTP and terminal deoxynucleotidyl transferase (TdT). The reaction was subsequently stopped and the cells counterstained with 1 μg/mL Hoechst 33258. Apoptotic cells were positive for green fluorescence in the nucleus. Percentage apoptosis was defined as the number of TUNEL positive nuclei normalized to Hoechst 33258 positive nuclei. Quantification of Steatosis was performed using HCS LipidTOX™ Phospholipidosis and Steatosis Detection Kit (ThermoFisher). […] Quantification of Bile Secretion was performed using 5(6)-carboxy-2′,7′-dichlorofluorescein diacetate (CDFDA) staining. […] All quantifications were made in comparison to cells treated with melatonin as negative control.
Quantification of Apoptotic index was performed using DeadEnd™ fluorometric TUNEL System (Promega) according to manufacturer directions. […] Apoptotic cells were positive for green fluorescence in the nucleus. […] Quantification of Steatosis was performed using HCS LipidTOX™ Phospholipidosis and Steatosis Detection Kit (ThermoFisher). […]

[3] = tested on: E6/E7^LOW human hepatocytes; experiment: E6/E7LOW human hepatocyte viability assessment (LIVE/DEAD Cytotoxicity kit); format: cell-based; settings: 24 hours
Method: E6/E7^LOW human hepatocyte were cultured with different concentrations of compounds dissolved in culture medium for 24 hours. Cell viability was subsequently determined using LIVE/DEAD Cytotoxicity kit (Molecular Probes, USA) according to manufacturer directions. Briefly, cultures were incubated for 30 minutes with 2 μM calcein AM and 3 μM ethidium homodimer-1. Live cells were positive for green fluorescence due to hydrolysis of the acetoxymethyl ester group by intracellular esterases. Dead cells were positive for red fluorescence due to ethidium homodimer-1 binding intracellular DNA, possible in […]. Cellular viability was expressed as live over dead ratio and normalized based on negative (DMSO/DDW/EtOH) and positive (0.1% Saponin) controls. Fluorescence micrographs were analyzed for total fluorescence using ImageJ for 12 repeats for each sample. TC50 and TC20 concentrations were calculated using MATLAB® Curve Fitting Tool. Results were fitted to a sigmoidal curve (Prentice, 1976; Wenner et al., 2011). Error bars indicate ±SE.

[4] = tested on: E6/E7^LOW human hepatocytes; experiment: Apoptotic index, DeadEnd fluorometric TUNEL System; format: cell-based; settings: 24 hours exposure
HepG2/C3A organoids = experiment: Neutral lipid and phospholipid staining of HepG2/C3A organoids on chip; format: cell-based, human; settings: p<0.001, n=9
E6/E7^LOW hepatocytes = tested on: E6/E7^LOW hepatocytes
Method: According to some embodiments of the invention there is a sensor-integrated liver on chip array in which oxygen is monitored using two-frequency phase modulation of tissue-embedded phosphorescent microprobes, while glucose, lactate and temperature are measured in real time using microfluidic electrochemical sensors. Such a microphysiological platform permits the calculation of dynamic changes in metabolic fluxes around central carbon metabolism, producing a unique metabolic fingerprint of the liver's response to stimuli.

Cc1cn([C@H]2C=C[C@@H](CO)O2)c(=O)[nH]c1=O [Stavudine]
phospholipidosis [1]: not
neutral lipids ([1]; p<0.001, n=4): strong and significant increase
bile secretion [2]: mild inhibition
TC50 [3]: 800 µM and 800 ± 60 µM
apoptosis [4]: no evidence of apoptosis
increase in the amount of intracellular lipids (HepG2/C3A organoids): 3 fold
ATP production (E6/E7^LOW hepatocytes): relatively unchanged
direct mitochondrial damage (E6/E7^LOW hepatocytes): no indication of direct mitochondrial damage
metabolic fluxes (lipogenesis, glycolysis) (E6/E7^LOW hepatocytes): transient increase in lipogenesis followed by global suppression of both glycolysis and lipogenesis
increase in lipogenesis (E6/E7^LOW hepatocytes; flux balance analysis, below threshold of cellular damage, Valproate sustained, Stavudine transient): 5%
time to onset of slow progressive damage post-exposure (E6/E7^LOW hepatocytes; human): 15 to 20 h
